Results on one compound are retold here after patent US20240425491A1, “HETEROARYL COMPOUNDS USEFUL IN THE TREATMENT OF COGNITIVE DISORDERS” (University College Cardiff Consultants Limited, priority 2021, published 2024).

Each structure is given as a SMILES string.

The target of assay [1] is T1, human recombinant GABAAR containing α5β3γ2 subunits (benzodiazepine site) (Homo sapiens, UniProt P18507+P31644).
T1 construct: expressed in transfected cells; host or cells: mouse L(tk−) cells, dexamethasone-inducible vector pMSGneo
The experiment in a line: In vitro radioligand binding assay (α5-GABAAR Ki). Conditions: inhibition of [3H]Ro15-1788 binding, membranes of L(tk−) cells expressing human α5β3γ2; read-out: α5-GABAAR Ki. The essentials: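 Membranes from mouse L(tk^−) cells stably expressing human α5β3γ2 GABAAR incubated 1 h at 4° C with 4 nM [^3H]Ro15-1788 and test compound; nonspecific binding with 1 μM TP003. Filter-bound radioactivity counted; Ki from IC50 by Cheng-Prusoff using measured Kd.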

In assay [2] the test system is mouse hippocampal brain slices (LTP suppressed by etomidate). The assay can be described thus: Electrophysiology in hippocampal slices - long term potentiation assay.
The target in assay [3] is T2, rat brain α5-GABAARs (Rattus norvegicus, UniProt P18508+P19969).
T2 construct: from tissue; host or cells: forebrain of male Sprague-Dawley rats, dosed in vivo
The experiment in a line: In vivo brain receptor occupancy assay ([3H]L-655,708 binding). As to the method:
The occupancy of rat brain benzodiazepine binding sites by compound was measured by its ability to inhibit the in vivo binding of [^3H] L-655,708. This radioligand is selective for the benzodiazepine site of GABAA receptors containing an α5 subunit (Quirk et al. 2001, Journal of Neurochemistry, 77 445-51) and has been used previously to measure in vivo α5-GABAAR occupancy (Atack et al. 2005, Neuropharmacology, 49 220-229).
[…] To block all benzodiazepine binding sites and therefore define the level of non-specific binding of [^3H] […]
Animals were then killed by stunning and decapitation, the whole brain was rapidly removed, the cerebellum and brainstem were discarded, leaving the forebrain which was weighed and homogenised in 10 volumes of ice-cold homogenising buffer (10 mM potassium phosphate buffer containing 100 mM KCl, pH 7.4). Aliquots of homogenate (500 μL) were then added directly to scintillation vials (total radioactivity) or filtered and washed with 5 ml Tris-HCL buffer (50 mM, pH 7.4) over Whatman glass microfiber GF/B filters. Washed filters were then placed in scintillation vials (three filters per vial) and scintillation fluid was added to all vials, which were then counted on a Perkin-Elmer Tricarb 2900TR scintillation counter (membrane-bound radioactivity). […]

T2 sequence (P19969 32-464 limits assumed): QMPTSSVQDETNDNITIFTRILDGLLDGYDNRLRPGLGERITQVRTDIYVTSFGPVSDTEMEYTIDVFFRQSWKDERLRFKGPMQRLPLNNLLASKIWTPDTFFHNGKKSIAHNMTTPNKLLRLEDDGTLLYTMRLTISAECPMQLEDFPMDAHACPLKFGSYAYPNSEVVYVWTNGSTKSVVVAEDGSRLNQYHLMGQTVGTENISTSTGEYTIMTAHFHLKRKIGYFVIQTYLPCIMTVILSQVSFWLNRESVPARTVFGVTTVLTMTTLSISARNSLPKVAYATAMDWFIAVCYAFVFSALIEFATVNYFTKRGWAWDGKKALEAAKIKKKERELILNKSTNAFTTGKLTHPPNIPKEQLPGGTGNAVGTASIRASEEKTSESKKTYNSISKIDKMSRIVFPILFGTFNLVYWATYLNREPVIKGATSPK
T2 sequence (P18508 39-466): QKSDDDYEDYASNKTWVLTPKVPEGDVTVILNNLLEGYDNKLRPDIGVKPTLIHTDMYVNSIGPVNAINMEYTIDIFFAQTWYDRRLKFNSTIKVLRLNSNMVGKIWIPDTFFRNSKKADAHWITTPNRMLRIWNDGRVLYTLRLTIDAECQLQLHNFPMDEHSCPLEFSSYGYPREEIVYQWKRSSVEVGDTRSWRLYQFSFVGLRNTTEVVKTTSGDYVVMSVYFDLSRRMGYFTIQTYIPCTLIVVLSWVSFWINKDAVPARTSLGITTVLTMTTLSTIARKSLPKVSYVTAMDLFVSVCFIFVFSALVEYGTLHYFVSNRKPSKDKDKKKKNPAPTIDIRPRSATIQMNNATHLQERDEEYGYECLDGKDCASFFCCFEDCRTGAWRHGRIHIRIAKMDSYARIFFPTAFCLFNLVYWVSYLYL
T1 sequence (P31644 32-462): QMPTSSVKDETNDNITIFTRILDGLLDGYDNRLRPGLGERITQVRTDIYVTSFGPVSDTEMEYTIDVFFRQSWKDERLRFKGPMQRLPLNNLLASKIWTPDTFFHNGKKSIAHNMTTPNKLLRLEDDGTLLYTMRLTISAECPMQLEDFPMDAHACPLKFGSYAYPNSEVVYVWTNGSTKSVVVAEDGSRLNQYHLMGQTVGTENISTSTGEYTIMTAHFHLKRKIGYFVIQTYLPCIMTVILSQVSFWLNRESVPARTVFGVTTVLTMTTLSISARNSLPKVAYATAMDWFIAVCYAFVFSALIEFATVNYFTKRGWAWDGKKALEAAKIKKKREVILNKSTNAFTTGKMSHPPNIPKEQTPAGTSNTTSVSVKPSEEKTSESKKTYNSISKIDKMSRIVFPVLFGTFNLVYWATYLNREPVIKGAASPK
T1 sequence (P28472 26-473 partner): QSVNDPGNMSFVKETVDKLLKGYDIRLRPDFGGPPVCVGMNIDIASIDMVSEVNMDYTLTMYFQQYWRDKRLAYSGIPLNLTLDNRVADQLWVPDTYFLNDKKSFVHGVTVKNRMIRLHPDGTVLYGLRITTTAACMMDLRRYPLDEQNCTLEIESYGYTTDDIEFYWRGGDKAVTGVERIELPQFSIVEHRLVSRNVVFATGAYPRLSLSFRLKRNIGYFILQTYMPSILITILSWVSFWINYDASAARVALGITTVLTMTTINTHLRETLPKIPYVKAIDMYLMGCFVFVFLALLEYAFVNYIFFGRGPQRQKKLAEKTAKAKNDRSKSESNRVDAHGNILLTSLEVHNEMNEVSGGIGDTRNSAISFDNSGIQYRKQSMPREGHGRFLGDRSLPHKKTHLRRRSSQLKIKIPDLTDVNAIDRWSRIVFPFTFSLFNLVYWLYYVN
T1 sequence (P18507 40-475): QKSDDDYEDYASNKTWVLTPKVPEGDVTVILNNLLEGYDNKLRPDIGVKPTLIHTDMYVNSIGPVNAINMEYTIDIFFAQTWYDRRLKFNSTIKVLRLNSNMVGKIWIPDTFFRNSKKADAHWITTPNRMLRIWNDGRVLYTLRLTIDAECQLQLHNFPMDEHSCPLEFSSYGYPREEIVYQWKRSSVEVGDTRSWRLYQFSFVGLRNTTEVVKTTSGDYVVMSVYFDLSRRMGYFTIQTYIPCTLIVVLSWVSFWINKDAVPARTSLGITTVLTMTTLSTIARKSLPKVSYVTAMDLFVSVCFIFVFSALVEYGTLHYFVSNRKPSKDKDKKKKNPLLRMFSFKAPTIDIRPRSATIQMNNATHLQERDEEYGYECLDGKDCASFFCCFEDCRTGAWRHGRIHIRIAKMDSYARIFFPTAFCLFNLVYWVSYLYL

For the compound `COc1nc(-n2ccnc2)ccc1NC(=O)c1c(-c2ccccc2)noc1C` [Example 1, N-(6-Imidazol-1-yl-2-methoxy-3-pyridyl)-5-methyl-3-phenyl-isoxazole-4-carboxamide], the Ki (commonly a dissociation constant, usually derived from enzyme kinetics or from competition with a known ligand) in assay [1] is 2.9 nM. Besides, in assay [2] (1 μM co-added with etomidate 3 μM, n=6, FIG. 2A), the “magnitude of LTP (fEPSP slope as % of control fEPSPs prior to 4-TBS vs time)” value is reported as “rescued”. Besides, the “fEPSP slope at 50-60 min post-delivery of the 4-TBS” value in assay [2] (co-incubation with etomidate, one-way ANOVA, post-hoc Tukey, p<0.05, FIG. 2B) is “significantly increased fEPSP slope”. The “occupancy of rat brain α5-GABAARs, dependence on dose” value in assay [3] (3 to 30 mg/kg p.o., FIG. 3) was “dose-dependent”. The receptor occupancy at 10 mg/kg in assay [3] (po, 10 mg/kg p.o., inhibition of in vivo [3H]L655,708 binding, FIG. 3, read-out: occupancy of rat brain α5 GABAA receptors) came out at 77%.
